Assay: In Vitro Human Skin Permeability Assay (static Franz diffusion cells)
Conditions: in vitro Franz diffusion cell; 0.65% (Compound 2) and 0.55% (Compound 1) (w/w) dose; 48 hour dose exposure; 5 mg formulation/cm^2
Description: To assure the integrity of each skin section, its permeability to tritiated water was determined before application of the test products.

For Cc1c(COC(=O)C(C)C)cccc1[C@H](C)c1c[nH]cn1 [Compound 1, iso-Butyric acid 3-[(S)-1-(1H-imidazol-4-yl)-ethyl]-2-methyl-benzyl ester], the “penetration into and through ex vivo human trunk skin (percutaneous absorption)” value was “penetrate into and through ex vivo human trunk skin”.
